Experimental data reported in US20250169496A1, “USE OF 2-AMINO-3-HYDROXY-3-METHYLBUTYRIC ACID AND/OR 2-AMINO-3-(4-HYDROXYPHENYL) BUTYRIC ACID” (NANJING TIANNONG BIOTECHNOLOGY CO., LTD., priority 2021, published 2025).
Several values for one entry are separate records, joined by “and”; a condition that tells them apart may be missing. Equal entries are not always repeated.

Experiments:
[1] = tested on: cotton under salt stress; assay: Hydroponic cotton under salt stress (100 mM NaCl); type: in vivo, cotton (Si Kang 1#); details: 100 mM NaCl for three days
Description: The experimental material is “Si Kang 1#” cotton. Use 500 mL plastic cups for hydroponic culture and replace the ½Hoagland nutrient solution once every two days. Spray a 2-amino-3-hydroxy-3-methylbutyric acid solution on the leaf surface when the cotton seedlings grow until the second true leaf is fully open, set the concentrations at 0, 1, 10, 100 and 1,000 nM in the experiment, and add 0.02% Tween 20 as a surfactant. Spray once every 24 h, twice in total, add NaCl to the ½Hoagland nutrient solution on the second day after treatment to make its final concentration be 100 mM, and conduct salt stress treatment. Repeat each treatment three times. Rewater after three days of salt stress, observe the salt damage symptoms of cotton, and calculate the salt damage index by the following formula: […]

[2] = tested on: wheat powdery mildew; assay: Field test of induced resistance of wheat to powdery mildew; type: in vivo; details: 1,000 nM; for Thousand kernel weight: dried harvested wheat seeds; for Relative immune effect: vs additive control
Description: Spraya 2-amino-3-hydroxy-3-methylbutyric acid solution (surfactant Tween 20 (0.02% (v/v) is added) at a concentration of 1,000 nM on stems and leaves in the field of Jiangsu Academy of Agricultural Sciences, use surfactant Tween 20 with a spray volume percent of 0.02% as an additive control, Atailing with 30 g sprayed per mu as a positive control, and repeat each treatment for three times. Investigate the wheat morbidity level of each treatment, record the morbidity level according to the wheat powdery mildew grading standard in the Pesticide—Guidelines for the Field Efficacy Trials(I) and calculate the disease index and relative immune effect by the calculation method same as that for the disease index and relative immune effect of tomato spotted wilt. After drying of the harvested wheat seeds, determine the thousand kernel weight of the wheat seeds under different treatments. The wheat powdery mildew grading standard (with leaf as a unit): • Level 1: The area of the disease spots accounts for less than 5% of the whole leaf area; • Level 3: The area of the disease spots accounts for 6%-15% of the whole leaf area; • Level 5: The area of the disease spots accounts for 16%-25% of the whole leaf area; • Level 7: The area of the disease spots accounts for 26%-50% of the whole leaf area; • Level 9: The area of the disease spots accounts for more than 50% of the whole leaf area.

[3] = tested on: wheat under drought stress; assay: Hydroponic wheat under drought stress (25% PEG-6000); type: in vivo; details: for Drought damage index / Dry weight, overground part / Dry weight, underground part / Fresh weight, overground part / Fresh weight, underground part / Root length: wheat, 6 d 25% PEG-6000, recovered 7 d; for Decrease of drought damage index / Increase of fresh weight of the overground part / Increase of fresh weight of the underground part / Increase of root length of wheat seedlings: compared to the control, drought stress
Description: Use a 6-mesh screen as a container for hydroponic culture of wheat, 50 grains per screen, replace the ½ Hoagland nutrient solution once every two days, spray 2-amino-3-hydroxy-3-methylbutyric acid solutions at2-amino-3-hydroxy-3-methylbutyric acid concentrations of 0, 100 and 1,000 nM when the wheat grows to the stage of two leaves and one shoot, and meanwhile, add 0.02% Tween 20 as a surfactant; after two days of continuous spray, replace the hydroponic nutrient solution with a ½ Hoagland nutrient solution containing 25% PEG-6000 for stress treatment,rewater after 6 d of drought stress, recover growth in a normal nutrient solution for 7 d, then observe and determine the drought damage index, and determine the root length and biomass.
The manifestation features after drought damage of leaves are similar to those after salt damage. By taking reference to the salt damage evaluation indexes, drought damage rate and drought damage index are introduced.

Compound | Death rate ([1]; 1 nM) | Salt damage index ([1]; 1 nM) | Death rate ([1]; 10 nM) | Salt damage index ([1]; 10 nM) | Death rate ([1]; 100 nM) | Salt damage index ([1]; 100 nM) | Death rate ([1]; 1,000 nM) | Salt damage index ([1]; 1,000 nM) | Thousand kernel weight [2] | Relative immune effect [2] | Drought damage index ([3]; 100 nM) | Dry weight, overground part ([3]; 100 nM) | Dry weight, underground part ([3]; 100 nM) | Fresh weight, overground part ([3]; 100 nM) | Fresh weight, underground part ([3]; 100 nM) | Root length ([3]; 100 nM) | Decrease of drought damage index ([3]; 1,000 nM) | Increase of fresh weight of the overground part ([3]; 1,000 nM) | Increase of fresh weight of the underground part ([3]; 1,000 nM) | Increase of root length of wheat seedlings ([3]; 1,000 nM) | other results
CC(c1ccc(O)cc1)C(N)C(=O)O (stereo not shown) [2-amino-3-(4-hydroxyphenyl) butyric acid] | 48% | 64% | 45% | 56% | 30% | 52% | 29% | 43% | 37.92 g and 37.92 ± 0.21 a g | 47.28% | 47% | 0.83 ± 0.01a g | 0.36 ± 0.01a g | 7.34 ± 0.18b g | 3.70 ± 0.03b g | 14.02 ± 0.03a cm | 49% | 45.66% | 57.93% | 11.47% | Drought damage index ([3]; 1,000 nM): 25%; Dry weight, overground part ([3]; 1,000 nM): 0.93 ± 0.05a g; Dry weight, underground part ([3]; 1,000 nM): 0.39 ± 0.01a g; Fresh weight, overground part ([3]; 1,000 nM): 8.90 ± 0.15a g; Fresh weight, underground part ([3]; 1,000 nM): 4.58 ± 0.01a g; Root length ([3]; 1,000 nM): 14.67 ± 007a cm
CC(C)(O)C(N)C(=O)O (stereo not shown) [2-amino-3-hydroxy-3-methylbutyric acid] | 51% | 66% | 47% | 58% | 34% | 54% | 30% | 48% | 32.61 g and 32.61 ± 0.18 a g | 38.74% | 45% | 0.80 ± 0.01b g | 0.33 ± 0.01a g | 7.27 ± 0.02b g | 3.65 ± 0.01b g | 13.94 ± 0.03a cm | 51% | 44.92% | 55.02% | 11.30% | Drought damage index ([3]; 1,000 nM): 26%; Dry weight, overground part ([3]; 1,000 nM): 0.92 ± 0.05a g; Dry weight, underground part ([3]; 1,000 nM): 0.37 ± 0.01a g; Fresh weight, overground part ([3]; 1,000 nM): 8.84 ± 0.09a g; Fresh weight, underground part ([3]; 1,000 nM): 4.48 ± 0.02a g; Root length ([3]; 1,000 nM): 14.58 ± 0.01a cm
